Reference: patent US10774053B2, “HIV protease inhibitors” (Gilead Sciences, Inc., priority 2017, dated 2020)

What follows are molecules tested on HIV-1 (IIIB) in MT-4 cells (assay: microbe, parasite or virus in culture). Conditions: Human immunodeficiency virus 1, IIIB, MT4, MT-4 cells, HIV-1; read-out: MT4 EC50.
Assay type: cell-based
Protocol: Compounds were serially diluted (1:3) in DMSO on 384-well polypropylene plates and further diluted 200-fold into complete RPMI media (10% FBS, 1% P/S) using the Biotek Micro Flow and Agilent ECHO acoustic dispenser. Each plate contained up to 8 test compounds, with negative (No Drug Control) and 5 uM AZT positive controls. MT-4 cells were pre-infected with 10 uL of either RPMI (mock-infected) or a fresh 1:250 dilution of an HIV-1 (IIIB) concentrated virus stock. Infected and uninfected MT-4 cells were further diluted in complete RPMI media and added to each plate using a Micro Flow dispenser. After 5 days incubation in a humidified and temperature controlled incubator (37° C.), Cell Titer Glo (Promega) was added to the assay plates to quantify the amount of luciferase.
`Cn1ncnc1-c1cc([C@@H](COC(=O)NC(C)(C)C(F)F)N2C(=N)N[C@](CC(C)(C)F)(c3ccc(-c4cnn(C(F)F)c4)cc3)C2=O)ccc1Cl` [Compound 128] gave an EC50 of 85 nM. With `Cn1ncnc1-c1cc([C@@H](COC(=O)NC(C)(C)C(F)F)N2C(=N)N[C@](CC(C)(C)C(F)(F)F)(c3ccc(-c4cnn(C(F)F)c4)cc3)C2=O)ccc1Cl` [Compound 130] the EC50 was 18.7 nM. For `CC(C)(F)C[C@]1(c2ccc(-c3ncccn3)cc2F)NC(=N)N([C@H](COC(=O)NC(C)(C)C(F)F)c2ccc(Cl)c(-c3ncnn3C(F)F)c2)C1=O` [Compound 132], the EC50 was 48 nM. With `CC(C)(F)C[C@]1(c2ccc(-c3cnn(C4CC4)c3)cc2F)NC(=N)N([C@H](COC(=O)NC(C)(C)C(F)F)c2ccc(Cl)c(-c3ncnn3C(F)F)c2)C1=O` [Compound 133] the EC50 was 35.1 nM. In the case of `CC(C)(C)C[C@]1(c2ccc(-c3cnn(C4CC4)c3)c(F)c2F)NC(=N)N([C@H](COC(=O)NC2(C(F)(F)F)CC2)c2ccc(Cl)c(-c3ncnn3C(F)F)c2)C1=O` [Compound 136], the EC50 is reported as 7.91 nM. Molecule `CC(C)(C)C[C@]1(c2ccc(-c3cn(C4CC4)nn3)cc2)NC(=N)N([C@H](COC(=O)NC2(C(F)(F)F)CC2)c2ccc(Cl)c(-c3ncnn3C(F)F)c2)C1=O` [Compound 137] has an EC50 of 19.5 nM. For `CC(C)(C)C[C@]1(c2ccc(-n3cc(F)cn3)cc2)NC(=N)N([C@H](COC(=O)NC2(C(F)(F)F)CC2)c2ccc(Cl)c(-c3ncnn3C(F)F)c2)C1=O` [Compound 138], the EC50 was 11.5 nM. For `CC1(C[C@]2(c3ccc(-c4cnn(C5CC5)c4)cc3)NC(=N)N([C@H](COC(=O)NC3(C(F)(F)F)CC3)c3ccc(Cl)c(-c4ncnn4C(F)F)c3)C2=O)CC1` [Compound 139], the EC50 was 28.1 nM. `CC(C)(C)C[C@]1(c2ccc(-c3cnn(C(F)F)c3)cc2)NC(=N)N([C@H](COC(=O)NC2(C(F)(F)F)CC2)c2ccc(C#N)c(-c3ncnn3C(F)F)c2)C1=O` [Compound 140] gave an EC50 of 266 nM. Molecule `CC(C)(C)C[C@]1(c2ccc(-c3cnn(C(F)F)c3)cc2)NC(=N)N([C@H](COC(=O)NC2(C(F)(F)F)CC2)c2ccc(C(N)=O)c(-c3ncnn3C(F)F)c2)C1=O` [Compound 141] has an EC50 of 1020 nM. Work on `CC(C)(C)C[C@]1(c2ccc(-c3ncn(C4CC4)n3)cc2F)NC(=N)N([C@H](COC(=O)NC2(C(F)(F)F)CC2)c2ccc(Cl)c(-c3ncnn3C(F)F)c2)C1=O` [Compound 142] yielded an EC50 of 10.1 nM. In the case of `CC(C)(C)C[C@]1(c2ccc(-c3cnn(C4CC4)n3)cc2F)NC(=N)N([C@H](COC(=O)NC2(C(F)(F)F)CC2)c2ccc(Cl)c(-c3ncnn3C(F)F)c2)C1=O` [Compound 143], the EC50 is reported as 9.59 nM. Work on `CC(C)(C)C[C@]1(c2ccc(-c3cnn(C4CC4)c3)c(F)c2)NC(=N)N([C@H](COC(=O)NC2(C(F)(F)F)CC2)c2ccc(Cl)c(-c3ncnn3C(F)F)c2)C1=O` [Compound 144] yielded an EC50 of 7.92 nM. With `CC(C)(Cl)C[C@]1(c2ccc(-c3cnn(C(F)F)c3)cc2)NC(=N)N([C@H](COC(=O)NC2(C(F)(F)F)CC2)c2ccc(Cl)c(-c3ncnn3C(F)F)c2)C1=O` [Compound 145] the EC50 was 228 nM. `C[C@H](NC(=O)OC[C@H](c1ccc(Cl)c(-c2ncnn2C(F)F)c1)N1C(=N)N[C@](CC(C)(C)C)(c2ccc(-c3cnn(C4CC4)n3)cc2)C1=O)C(F)(F)F` [Compound 147] was tested, and the EC50 was 7.93 nM. `C[C@H](NC(=O)OC[C@H](c1ccc(Cl)c(-c2ncnn2C(F)F)c1)N1C(=N)N[C@](CC(C)(C)C)(c2ccc(-c3cn(C45CC(C4)C5)nn3)c(F)c2)C1=O)C(F)(F)F` [Compound 148] was tested, and the EC50 was 13.8 nM. In the case of `CC(C)(C[C@]1(c2ccc(-c3cnn(C4CC4)n3)cc2)NC(=N)N([C@H](COC(=O)NC2(C(F)(F)F)CC2)c2ccc(Cl)c(-c3ncnn3C(F)F)c2)C1=O)C1CC1` [Compound 149], the EC50 is reported as 11.9 nM. In the case of `C[C@H](NC(=O)OC[C@H](c1ccc(Cl)c(-c2ncnn2C(F)F)c1)N1C(=N)N[C@](CC(C)(C)C2CC2)(c2ccc(-c3cnn(C4CC4)n3)cc2)C1=O)C(F)(F)F` [Compound 150], the EC50 is reported as 9.92 nM. `CC(C)(C)C[C@]1(c2ccc(-c3cnn(CC(F)F)n3)cc2F)NC(=N)N([C@H](COC(=O)NC2(C(F)(F)F)CC2)c2ccc(Cl)c(-c3ncnn3C(F)F)c2)C1=O` [Compound 151] showed an EC50 of 7.55 nM. `CC1(NC(=O)OC[C@H](c2ccc(Cl)c(-c3ncnn3C(F)F)c2)N2C(=N)N[C@](CC(C)(C)C(F)(F)F)(c3ccc(-c4cnn(C5CC5)n4)cc3)C2=O)CC1` [Compound 157] showed an EC50 of 7.64 nM. `CC(C)(C[C@]1(c2ccc(-c3cnn(C4CC4)n3)cc2)NC(=N)N([C@H](COC(=O)NC2(C(F)(F)F)CC2)c2ccc(Cl)c(-c3ncnn3C3CC3)c2)C1=O)C(F)(F)F` [Compound 159] was tested, and the EC50 was 10.9 nM. `C[C@H](C(=O)NC[C@H](c1ccc(Cl)c(-c2ncnn2C(F)F)c1)N1C(=N)N[C@](CC(C)(C)C(F)(F)F)(c2ccc(-c3cnn(C4CC4)n3)cc2)C1=O)C(F)(F)F` [Compound 161] gave an EC50 of 14.3 nM. `C[C@@H](C(=O)NC[C@H](c1ccc(Cl)c(-c2ncnn2C(F)F)c1)N1C(=N)N[C@](CC(C)(C)C(F)(F)F)(c2ccc(-c3cnn(C4CC4)n3)cc2)C1=O)C(F)(F)F` [Compound 162] was tested, and the EC50 was 21 nM. In the case of `CC(C)(C)C[C@]1(c2ccc(-c3cnn(C(F)F)c3)cc2)NC(=N)N([C@H](COC(=O)NC2(C)CC2)c2ccc(Cl)c(-n3ncnc3C(F)F)c2)C1=O` [Compound 178], the EC50 is reported as 9.99 nM. Molecule `CC(C)(C)C[C@]1(c2ccc(-c3cnn(C(F)F)c3)cc2)NC(=N)N([C@H](COC(=O)Nc2ccccn2)c2ccc(Cl)c(-n3ncnc3C(F)F)c2)C1=O` [Compound 181] has an EC50 of 29 nM. `CC(C)(C)C[C@]1(c2ccc(-c3cnn(C(F)F)c3)cc2)NC(=N)N([C@H](COC(=O)NC(C)(C)C)c2ccc(Cl)c(-n3ncnc3C(F)F)c2)C1=O` [Compound 183] showed an EC50 of 12 nM. `CC(C)(C)C[C@]1(c2ccc(-c3cnn(C(F)F)c3)cc2)NC(=N)N([C@H](COC(=O)N2CC(F)(F)C2)c2ccc(Cl)c(-n3ncnc3C(F)F)c2)C1=O` [Compound 184] gave an EC50 of 9.93 nM. For `CC(C)(C)C[C@]1(c2ccc(-c3cnn(C(F)F)c3)cc2)NC(=N)N([C@H](CO)c2ccc(Cl)c(-n3ncnc3C(F)F)c2)C1=O` [Compound 186], the EC50 was 80.2 nM. `CC(C)(C)C[C@]1(c2ccc(-c3ncccn3)cc2)NC(=N)N([C@H](COC(=O)NC2(C(F)(F)F)CC2)c2ccc(Cl)c(-n3ncnc3C(F)F)c2)C1=O` [Compound 187] gave an EC50 of 11.6 nM. `CC(C)(C)C[C@]1(c2ccc(-c3ncccn3)cc2)NC(=N)N([C@H](COC(=O)NC(C)(C)C(F)F)c2ccc(Cl)c(-n3ncnc3C(F)F)c2)C1=O` [Compound 188] was tested, and the EC50 was 9.9 nM. In the case of `CC(C)(C)C[C@]1(c2ccc(-c3ncccn3)cc2)NC(=N)N([C@H](COC(=O)NC(C)(C)C(F)(F)F)c2ccc(Cl)c(-n3ncnc3C(F)F)c2)C1=O` [Compound 189], the EC50 is reported as 9.12 nM. Molecule `CC(C)(C)C[C@]1(c2ccc(-c3ccccn3)cc2)NC(=N)N([C@H](COC(=O)NC2(C(F)(F)F)CC2)c2ccc(Cl)c(-n3ncnc3C(F)F)c2)C1=O` [Compound 190] has an EC50 of 22.6 nM. For `CC(C)(C)C[C@]1(c2ccc(-c3ccccn3)cc2)NC(=N)N([C@H](COC(=O)NC(C)(C)C)c2ccc(Cl)c(-n3ncnc3C(F)F)c2)C1=O` [Compound 191], the EC50 was 9.69 nM. In the case of `CC(C)(C)C[C@]1(c2ccc(-c3cnn(C(F)F)c3)cc2)NC(=N)N([C@H](COC(=O)NC2(C(F)(F)F)CC2)c2cc(F)c(Cl)c(-n3ncnc3C(F)F)c2)C1=O` [Compound 192], the EC50 is reported as 61.9 nM. For `CC(C)(C)C[C@]1(c2ccc(-c3ccccn3)cc2)NC(=N)N([C@H](COC(=O)NC2(C(F)(F)F)CC2)c2cc(F)c(Cl)c(-n3ncnc3C(F)F)c2)C1=O` [Compound 193], the EC50 was 88.3 nM. `CC(C)(C)C[C@]1(c2ccc(-c3ccccn3)cc2F)NC(=N)N([C@H](COC(=O)NC2(C(F)(F)F)CC2)c2ccc(Cl)c(-n3ncnc3C(F)F)c2)C1=O` [Compound 196] gave an EC50 of 12.7 nM. Work on `CC(C)(C)C[C@]1(c2ccc(-c3ncccn3)cc2F)NC(=N)N([C@H](COC(=O)NC2(C(F)(F)F)CC2)c2ccc(Cl)c(-n3ncnc3C(F)F)c2)C1=O` [Compound 197] yielded an EC50 of 11.2 nM. `CC(C)(C)C[C@]1(c2ccc(-c3ncccn3)cc2F)NC(=N)N([C@H](COC(=O)NC(C)(C)C(F)(F)F)c2ccc(Cl)c(-n3ncnc3C(F)F)c2)C1=O` [Compound 198] showed an EC50 of 11.5 nM. `CC(C)(C)C[C@]1(c2ccc(-c3cncs3)cc2F)NC(=N)N([C@H](COC(=O)NC2(C(F)(F)F)CC2)c2ccc(Cl)c(-n3ncnc3C(F)F)c2)C1=O` [Compound 199] showed an EC50 of 7.6 nM. `Cc1ncsc1-c1ccc([C@@]2(CC(C)(C)C)NC(=N)N([C@H](COC(=O)NC3(C(F)(F)F)CC3)c3ccc(Cl)c(-n4ncnc4C(F)F)c3)C2=O)c(F)c1` [Compound 200] showed an EC50 of 26.2 nM. In the case of `Cn1nccc1-c1ccc([C@@]2(CC(C)(C)C)NC(=N)N([C@H](COC(=O)NC3(C(F)(F)F)CC3)c3ccc(Cl)c(-n4ncnc4C(F)F)c3)C2=O)cc1` [Compound 205], the EC50 is reported as 20.2 nM. In the case of `Cn1ccc(-c2ccc([C@@]3(CC(C)(C)C)NC(=N)N([C@H](COC(=O)NC4(C(F)(F)F)CC4)c4ccc(Cl)c(-n5ncnc5C(F)F)c4)C3=O)cc2)n1` [Compound 206], the EC50 is reported as 6.74 nM. For `CC(C)(C)C[C@]1(c2ccc(-c3cnn(C4CC4)c3)cc2)NC(=N)N([C@H](COC(=O)NC2(C(F)(F)F)CC2)c2ccc(Cl)c(-n3ncnc3C(F)F)c2)C1=O` [Compound 207], the EC50 was 13.9 nM.

Same assay, conditions: Human immunodeficiency virus 1, IIIB, MT4, read-out: MT4 EC50 (nM)
`CC(C)(C[C@]1(c2ccc(-c3cnn(C4CC4)n3)cc2)NC(=N)N([C@H](COC(=O)NCC(F)(F)F)c2ccc(Cl)c(-c3ncnn3C(F)F)c2)C1=O)C(F)(F)F` [Compound 156] gave an EC50 of 11.1 nM. `CC(C)(C)C[C@]1(c2ccc(-c3cnn(C(F)F)c3)cc2)NC(=N)N([C@H](COC(=O)Nc2ccccc2)c2ccc(Cl)c(-n3ncnc3C(F)F)c2)C1=O` [Compound 180] gave an EC50 of 23.7 nM.
